“And” between values parts separate entries of the source, which are not always exact repeats. Equal values may be shown once.
How the values were obtained:
[1] = test system: 67 genes on the fibrosis gene panel; conditions: rat, in vivo; on Differential Expression of Anxa2: unit not given here; on Differential Expression of Arrb1: unit not given here; on Differential Expression of CP: unit not given here; on Differential Expression of Ctgf: unit not given here; on Differential Expression of Cxcl12: unit not given here; on Differential Expression of Fam102b: unit not given here; on Differential Expression of Fam105a: unit not given here; on Differential Expression of Fbn1: unit not given here
[2] = test system: 67 genes on the fibrosis gene panel; assay: Multiplexed fibrosis gene panel (QuantiGene 2.0 Plex / Bioplex) on liver RNA; conditions: liver RNA, individual animals; Carbon Tetrachloride 200, Bromobenzene 785, Dexamethasone 1 mg/kg; on Differential Expression of Anxa2: unit not given here; on Differential Expression of Arrb1: unit not given here; on Differential Expression of CP: unit not given here; on Differential Expression of Ctgf: unit not given here; on Differential Expression of Cxcl12: unit not given here; on Differential Expression of Fam102b: unit not given here; on Differential Expression of Fam105a: unit not given here; on Differential Expression of Fbn1: unit not given here

In the case of C[C@@H]1C[C@H]2[C@@H]3CCC4=CC(=O)C=C[C@]4(C)[C@@]3(F)[C@@H](O)C[C@]2(C)[C@@]1(O)C(=O)CO [dexamethasone], the “Panel genes downregulated (and upregulated in fibrogenic chemical-dose groups)” value [1] is reported as 12 genes, the “Pcolce expression levels compared with fibrogenic compounds” value [1] is reported as “anti-correlated with corresponding gene expression levels induced by 4,4′-methylenedianiline and allyl alcohol” and the “Differential Expression of A2m” value [2] is reported as −1.370 and −0.649 and −0.615 and −0.252. For the same molecule, the “Differential Expression of Angptl3” value [2] was 0.029 and −0.467 and −0.241, the “Differential Expression of Anxa2” value [2] was 0.519 and 0.194 and −0.132 and 0.293 and the “Differential Expression of Apoc” value [2] was −0.250 and −0.067 and −0.469 and −0.542. For the same molecule, the “Differential Expression of Arf6” value [2] was −0.268 and −0.346 and −0.401 and 0.005, the “Differential Expression of Arpc1b” value [2] was −1.391 and −2.770 and −5.994 and −0.172 and the “Differential Expression of Arrb1” value [2] was −0.840 and −2.152 and −3.043 and 0.703. For the same molecule, the “Differential Expression of C1qb” value [2] was −0.174 and −0.655 and −0.257 and −0.222, the “Differential Expression of CD9” value [2] was 0.155 and −0.656 and −0.280 and 0.387 and the “Differential Expression of CD53” value [2] was −0.716 and −3.901 and −5.862 and 0.006. For the same molecule, the “Differential Expression of CP” value [2] was −0.134 and −0.634 and −0.952 and −0.558, the “Differential Expression of Capg” value [2] was −0.558 and −0.744 and −0.772 and −0.404 and the “Differential Expression of Ccl2” value [2] was −0.272 and 0.250 and 0.043 and 1.019. For the same molecule, the “Differential Expression of Col1a1” value [2] was −4.640 and −3.775 and −5.473 and −0.928, the “Differential Expression of Col1a2” value [2] was −0.960 and −1.057 and −2.208 and −1.081 and the “Differential Expression of Col4a1” value [2] was −1.039 and −1.035 and −1.397 and −0.880. The “Differential Expression of Col5a2” value [2] was −0.407 and −0.910 and −2.382 and 0.311, the “Differential Expression of Ctgf” value [2] was −0.755 and 0.747 and −0.663 and 0.405 and the “Differential Expression of Cxcl1” value [2] was 0.104 and 1.127 and 0.364 and 0.097. For the same molecule, the “Differential Expression of Cxcl12” value [2] was −1.808 and −3.742 and −2.144 and −1.869, the “Differential Expression of Cxcl16” value [2] was −0.537 and −4.885 and 0.714 and the “Differential Expression of Cyba” value [2] was −0.998 and −1.793 and −1.244 and −0.956. The “Differential Expression of Dsc2” value [2] was −0.209 and −0.593 and −0.466 and −0.248, the “Differential Expression of Fam102b” value [2] was −0.462 and −0.124 and −0.822 and −0.262 and the “Differential Expression of Fam105a” value [2] was −0.295 and 0.195 and −0.809 and −0.294. For the same molecule, the “Differential Expression of Fbn1” value [2] was −1.213 and −1.784 and −2.160 and −1.736, the “Differential Expression of Fn1” value [2] was 0.397 and 0.181 and −0.334 and −0.170 and the “Differential Expression of Fstl1” value [2] was −1.085 and −1.346 and −1.183 and −0.931. The “Differential Expression of Fxyd5” value [2] was −0.247 and −0.412 and −0.305, the “Differential Expression of Gpnmb” value [2] was −0.018 and 1.304 and 0.968 and 1.447 and the “Differential Expression of Igfals” value [2] was −0.678 and −2.820 and −1.013 and −1.310. For the same molecule, the “Differential Expression of Igfbp1” value [2] was 1.132 and 1.740 and 0.780 and 0.489, the “Differential Expression of Igfbp2” value [2] was −0.258 and −0.949 and −1.156 and −0.041 and the “Differential Expression of Igfbp3” value [2] was −1.125 and −1.454 and −2.523 and −1.663. For the same molecule, the “Differential Expression of Itga1” value [2] was −2.088 and −3.379 and −2.849 and −1.903, the “Differential Expression of Itgb2” value [2] was −1.330 and −2.265 and −1.982 and −0.802 and the “Differential Expression of Lame2” value [2] was −0.132 and 0.260 and −1.038 and 0.536. The “Differential Expression of Lbp” value [2] was 0.344 and −0.042 and 0.261 and −0.020, the “Differential Expression of Len2” value [2] was −0.470 and 0.418 and 0.883 and 0.535 and the “Differential Expression of Lgals1” value [2] was 0.458 and −4.140 and −0.346 and 0.583. For the same molecule, the “Differential Expression of Lgals3” value [2] was 0.011 and 0.320 and 0.370 and 0.526, the “Differential Expression of Lgals3bp” value [2] was −1.477 and −0.782 and −1.281 and −0.669 and the “Differential Expression of Lox” value [2] was 0.278 and 0.412 and −0.164. The “Differential Expression of Lrp1” value [2] was −0.206 and −0.631 and −0.863 and −0.371, the “Differential Expression of Lum” value [2] was 0.593 and 0.401 and −0.997 and −0.078 and the “Differential Expression of Mmp2” value [2] was −0.245 and −1.273 and −0.990 and −0.583. The “Differential Expression of Nid1” value [2] was −1.271 (2×) and −1.374 and −1.155, the “Differential Expression of Pcolce” value [2] was −1.293 and −1.196 and −1.572 and −0.246 and the “Differential Expression of Pkm2” value [2] was −0.668 and −0.611 and −0.735 and −0.472. For the same molecule, the “Differential Expression of Plat” value [2] was 0.103 and 0.075 and −0.461 and −0.335, the “Differential Expression of Plau” value [2] was −0.719 and −2.088 and −1.424 and −0.095 and the “Differential Expression of Plod2” value [2] was −0.065 and 0.269 and −0.568 and −0.077. For the same molecule, the “Differential Expression of RT1-DMa” value [2] was 3.152 and 2.497 and 3.371 and 2.417, the “Differential Expression of RT1-Da” value [2] was −4.927 and −7.563 and −4.272 and −3.443 and the “Differential Expression of S100A6” value [2] was 0.650 and −0.047 and 0.843 and 0.695. For the same molecule, the “Differential Expression of S100A11” value [2] was −0.377 and −0.570 and −0.732 and −0.465, the “Differential Expression of Serpine1” value [2] was 0.251 and 1.560 and 0.110 and 0.038 and the “Differential Expression of Serping1” value [2] was 0.154 and 0.026 and −0.228 and 0.065. For the same molecule, the “Differential Expression of Slc25a24” value [2] was −0.387 and −0.565 and −0.427, the “Differential Expression of Sod2” value [2] was −0.398 and −0.428 and −0.371 and −0.367 and the “Differential Expression of TagIn2” value [2] was −0.486 and −0.918 and −0.563 and −0.566. The “Differential Expression of Tgfb1” value [2] was −1.193 and −1.526 and −1.328 and −1.429, the “Differential Expression of Timp1” value [2] was 0.026 and 0.464 and −0.134 and 1.004 and the “Differential Expression of Vhl” value [2] was −0.300 and −1.037 and −0.787 and 0.504. For the same molecule, the “Differential Expression of Vim” value [2] was −0.856 and −1.292 and −1.277 and the “Differential Expression of Vtn” value [2] was −0.111 and −0.294 and −0.579 and −0.572.
